Results published in patent US9018142B2, “Oil-field biocide method utilizing a peracid” (PeroxyChem LLC, priority 2008, dated 2015).

Test system: Desulfotomaculum nigrificans (ATCC 19858)
Assay: D. nigrificans growth after biocide exposure in 0.1 wt % polyacrylamide
Format: cell-based
Parameters: key to D. nigrificans Growth Results / D. nigrificans Growth Results, Neutral Control: positive (+); negative (NEG)
Description: Example 2 illustrates the biocidal efficacy of peracetic acid, compared with glutaraldehyde, against another strain of sulfur-reducing bacteria, Desulfotomaculum nigrificans, present in an aqueous solution also containing 0.1 wt % polyacrylamide polymer. A range of peracetic acid and glutaraldehyde concentrations were evaluated for biocidal efficacy: 1, 5, 10, 25, 50, 75, 100, 200 and 300 ppm peracetic acid and the same concentrations for glutaraldehyde (except that 300 ppm was omitted).
The dilute aqueous polyacrylamide was prepared using an aqueous 50 wt % polyacrylamide solution (Sigma-Aldrich, St. Louis, Mo.) and diluting the polyacrylamide with deionized water to obtain 0.1 wt % polyacrylamide in water. The peracetic acid was Vigor Ox® SP-15 antimicrobial agent, containing about 15-17 wt % peracetic acid, 9-11 wt % hydrogen peroxide and 33-38 wt % acetic acid in water (FMC Corporation, Philadelphia, Pa.), and this peracetic acid solution was diluted to the desired concentration within the range 1 to 300 ppm peracetic acid for the various evaluations. The glutaraldehyde used in this Example 2 was a 50 wt % glutaraldehyde solution in water (Alfa Aesar, Ward Hill, Mass.), diluted with deionized water to the desired concentration within the range 1 to 200 ppm for the evaluations.
The bacterial strain used in this Example 2 was the sulfur-reducing bacterium Desulfotomaculum nigrificans (ATCC 19858 from American Type Culture Collection, Manassas, Va.). A working inoculum for each of the three studies described below was prepared by the following procedure. Baar's medium for sulfate reducers was inoculated with D. nigrificans from a cryogenic tube, grown at 50° C. anaerobically for a period sufficient to observe good growth of the culture (evident by blackening of the tube), between 2-7 days. This D. nigrificans culture was used as the working inoculum for each of the studies described below.
The methodology used in this Example 2 was as follows. A sterilized screw-cap tube containing 9.5-10 ml 0.1 wt % polyacrylamide was dosed with an appropriate amount of peracetic acid (or glutaraldehyde) to provide the desired peracetic acid (or glutaraldehyde) concentration (e.g., 1 to 300 ppm peracetic acid) in 10 ml 0.1 wt % polyacrylamide required for the study. The tubes were then vortex mixed and 0.1 ml D. nigrificans inoculum was added and again vortex mixed. The initial inoculation level was estimated as about 2.6×10^6 CFU/tube. Timing of the exposure period (e.g., 1 minute to 1 day) was begun when the D. nigrificans inoculum was added.
After the exposure period had elapsed, 1 ml of the treated mixture was added to a second tube containing 9 ml of Dey-Engley (D/E) neutralizing broth and vortex mixed. After about 5-8 minutes had elapsed, 1 ml of the neutralized solution was added to yet another tube containing 9 ml of Baar's modified medium for sulfate reducers. This tube was vortex mixed and then incubated anaerobically at 50° C., with the screw cap loosened, using an AnaeroPack (Mitsubishi Gas Chemical America, Inc., New York, N.Y.) in an anaerobic jar.
Growth controls were also carried out in the studies of this Example 2, using the following procedure. A screw-cap tube containing 10 ml of 0.1 wt % polyacrylamide was inoculated with 0.1 ml of D. nigrificans culture and then diluted in D/E neutralizing broth after the exposure period, vortex mixed, and then diluted in Baar's medium as described above. The control tubes were incubated at 50° C., also as described above, and monitored for growth after two days.
Neutralizing controls were also carried out for the peracetic acid and glutaraldehyde treatment agents to confirm that D/E neutralizing broth (which contains sodium bisulfite and […] among its neutralizing agents) was capable of neutralizing either peracetic acid or glutaraldehyde at the highest concentration used in each study. […]

Peracetic acid
+: D. nigrificans Growth Results (first study, 1 ppm, 1 minute exposure) | D. nigrificans Growth Results (first study, 1 ppm, 1 hour exposure) | D. nigrificans Growth Results (first study, 1 ppm, 1 day exposure) | D. nigrificans Growth Results (first study, 5 ppm, 1 minute exposure) | D. nigrificans Growth Results (first study, 5 ppm, 1 hour exposure) | D. nigrificans Growth Results (first study, 5 ppm, 1 day exposure) | D. nigrificans Growth Results (first study, 10 ppm, 1 minute exposure) | D. nigrificans Growth Results (first study, 10 ppm, 1 hour exposure) | D. nigrificans Growth Results (first study, 10 ppm, 1 day exposure) | D. nigrificans Growth Results (first study, 25 ppm, 1 minute exposure) | D. nigrificans Growth Results (first study, 25 ppm, 1 hour exposure) | D. nigrificans Growth Results, Neutral Control (first study, 50 ppm biocide neutralized in D/E neutralizing broth before inoculation) | D. nigrificans Growth Results (first study, 50 ppm, 1 minute exposure) | D. nigrificans Growth Results (second study, 50 ppm, 10 minutes exposure) | D. nigrificans Growth Results (second study, 50 ppm, 1 hour exposure) | D. nigrificans Growth Results (second study, 75 ppm, 10 minutes exposure) | D. nigrificans Growth Results (second study, 100 ppm, 10 minutes exposure) | D. nigrificans Growth Results, Neutral Control (second study, 200 ppm biocide neutralized in D/E neutralizing broth before inoculation) | D. nigrificans Growth Results (second study, 200 ppm, 10 minutes exposure) | D. nigrificans Growth Results (third study, 100 ppm, 10 minutes exposure) | D. nigrificans Growth Results (third study, 200 ppm, 10 minutes exposure) | D. nigrificans Growth Results, Neutral Control (third study, 300 ppm peracetic acid neutralized in D/E neutralizing broth before inoculation)
provided biocidal control: biocidal control of D. nigrificans (first study, 25 ppm and 50 ppm, 1 day exposure) | biocidal control of D. nigrificans (second study, 50, 75, 100 and 200 ppm, 1 day exposure) | biocidal control of D. nigrificans (third study, 60 minutes, 100 ppm (2 of 3 replicates), 200 ppm, 300 ppm (2 of 3 replicates))
demonstrated biocidal activity: biocidal activity against D. nigrificans (second study, 1 hour exposure, 75 ppm, 100 ppm (1 of 2 replicates), 200 ppm) | biocidal activity against D. nigrificans (third study, 30 minutes, 100 ppm (2 of 3 replicates), 200 ppm, 300 ppm)
+ and NEG: D. nigrificans Growth Results (third study, 100 ppm, 30 minutes exposure)
NEG: D. nigrificans Growth Results (first study, 25 ppm, 1 day exposure) | D. nigrificans Growth Results (first study, 50 ppm, 1 day exposure) | D. nigrificans Growth Results (second study, 50 ppm, 1 day exposure) | D. nigrificans Growth Results (second study, 75 ppm, 1 hour exposure) | D. nigrificans Growth Results (second study, 75 ppm, 1 day exposure) | D. nigrificans Growth Results (second study, 100 ppm, 1 day exposure) | D. nigrificans Growth Results (second study, 200 ppm, 1 hour exposure) | D. nigrificans Growth Results (second study, 200 ppm, 1 day exposure) | D. nigrificans Growth Results (third study, 200 ppm, 30 minutes exposure) | D. nigrificans Growth Results (third study, 200 ppm, 60 minutes exposure) | D. nigrificans Growth Results (third study, 300 ppm, 10 minutes exposure) | D. nigrificans Growth Results (third study, 300 ppm, 30 minutes exposure)
did not exhibit biocidal activity: biocidal activity against D. nigrificans (third study, ten minutes, 100 and 200 ppm)
no biocidal control: biocidal control of D. nigrificans (first study, 1 ppm, 5 ppm or 10 ppm, any of the exposure times)
some biocidal activity: biocidal activity against D. nigrificans (first study, 50 ppm, one hour, NEG for one of the two replicates)
NEG and +: D. nigrificans Growth Results (first study, 50 ppm, 1 hour exposure) | D. nigrificans Growth Results (second study, 100 ppm, 1 hour exposure) | D. nigrificans Growth Results (third study, 100 ppm, 60 minutes exposure) | D. nigrificans Growth Results (third study, 300 ppm, 60 minutes exposure)
no biocidal activity: biocidal activity against D. nigrificans (second study, 10 minutes exposure, any of the concentrations)
exhibited biocidal control: biocidal control of D. nigrificans (third study, ten minutes, 300 ppm)
